One may read the EC90 as the concentration needed for an effect of 90%.

One assay concerns HCV replicon cells. Nature of the assay: Cell-based HCV replicon assay (replicon RNA level by real time PCR, Taqman). To be noted: Hepatitis C virus, 72 h, HCV replicon cells, harvested day 3, replicon RNA by real time PCR; reported as range class; read-out: EC90 (μM) range. An outline of the steps: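 Readout: ΔCT between NS5B replicon RNA and GAPDH by real-time RT-PCR in lysates harvested on day 3, fitted sigmoidally; EC50 at ΔCT=1, EC90 at ΔCT=3.2. Compounds tested at ten 2-fold dilutions from 25 μM to 1 μM start, 10% FBS, 0.5% DMSO.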
On the technique in general: In antiviral work, replicon cells carry a viral genome segment that copies itself.
Regarding `Cc1cc2cc(-c3c(Cl)nc(N)nc3N[C@@H]3C[C@H](CO)[C@@H](O)[C@H]3O)oc2c(C)n1` [Example 401], the 90% effect concentration (EC90) was less than 0.5 µM.

Take `Nc1nc(Cl)c(-c2cc3cncnc3o2)c(N[C@@H]2C[C@H](CO)[C@@H](O)[C@H]2O)n1` [Example 402]: the EC90 was more than 5 µM. On the same count and under the same terms, then `CNc1nc(Cl)c(-c2nc3ccccc3s2)c(N[C@@H]2C[C@H](CO)[C@@H](O)[C@H]2O)n1` [Example 403], with less than 0.5 µM; and `CNc1nc(Cl)c(-c2nc3ccccc3s2)c(N(C)[C@@H]2C[C@H](CO)[C@@H](O)[C@H]2O)n1` [Example 404], with more than 5 µM.

`CCc1cc2cc(-c3c(Cl)nc(N)nc3N[C@@H]3C[C@H](CO)[C@@H](O)[C@H]3O)oc2cn1` [Example 406]: the EC90 was less than 0.5 µM.

`CCc1cc2cc(-c3c(Cl)nc(N)nc3N[C@@H]3C[C@H](CO)[C@@H](O)[C@H]3O)oc2c(CC)n1` [Example 407]: the concentration for an effect of 90% (EC90) was less than 0.5 µM.

Regarding `CN(C)c1nc(Cl)c(-c2nc3ccccc3s2)c(N[C@@H]2C[C@H](CO)[C@@H](O)[C@H]2O)n1` [Example 408], the 90% effect concentration (EC90) is less than 0.5 µM.

As to `CCCc1cc2cc(-c3c(Cl)nc(N)nc3N[C@@H]3C[C@H](CO)[C@@H](O)[C@H]3O)oc2cn1` [Example 410], the EC90 was less than 0.5 µM. The same measure, in the same setting: in the case of `CCN(CC)c1nc(Cl)c(-c2nc3ccccc3s2)c(N[C@@H]2C[C@H](CO)[C@@H](O)[C@H]2O)n1` [Example 411] it was 0.5 to 5 µM; in that of `CCNc1nc(Cl)c(-c2nc3ccccc3s2)c(N[C@@H]2C[C@H](CO)[C@@H](O)[C@H]2O)n1` [Example 412], less than 0.5 µM.

`OC[C@H]1C[C@@H](Nc2nc(N3CCC3)nc(Cl)c2-c2nc3ccccc3s2)[C@H](O)[C@@H]1O` [Example 413]: the concentration for an effect of 90% (EC90) was in the range of 0.5 to 5 µM.

`CN(C)c1nc(N[C@@H]2C[C@H](CO)[C@@H](O)[C@H]2O)c(-c2nc3ccccc3s2)c(-c2ccccc2)n1` [Example 414]: the EC90 is more than 5 µM. On the same count and under the same terms, in the case of `CN(C)c1nc(N[C@@H]2C[C@H](CO)[C@@H](O)[C@H]2O)c(-c2nc3ccccc3s2)c(-c2cccs2)n1` [Example 415] it was more than 5 µM.

The same assay, now with this note: Hepatitis C virus, 72 h, HCV replicon cells, harvested on day 3, replicon RNA by real time PCR; calculated EC90 reported as range class; read-out: EC90 (μM) range.
With `OC[C@H]1C[C@@H](Nc2nc(NCC3CCCCC3)nc(Cl)c2-c2nc3ccccc3s2)[C@H](O)[C@@H]1O` [Example 322], the concentration for an effect of 90% (EC90) was less than 0.5 µM. Same read-out and setting: in the case of `Cc1nc(NCC2CCCCC2)nc(N[C@@H]2C[C@H](CO)[C@@H](O)[C@H]2O)c1-c1nc2ccccc2s1` [Example 323] it was less than 0.5 µM. The same measure, in the same setting: then `Cc1nc(S(C)(=O)=O)nc(N[C@@H]2C[C@H](CO)[C@@H](O)[C@H]2O)c1-c1nc2ccccc2s1` [Example 324], with more than 5 µM; and `Cc1nc(NCC2CCCO2)nc(N[C@@H]2C[C@H](CO)[C@@H](O)[C@H]2O)c1-c1nc2ccccc2s1` (stereo partly shown) [Example 325], with less than 0.5 µM. In the case of `CSc1nc(C)c(-c2nc3ccccc3s2)c(N[C@@H]2C[C@H](CO)[C@@H](O)[C@H]2O)n1` [Example 326], the 90% effect concentration (EC90) was 0.5 to 5 µM.

With `CCCCCNc1nc(C)c(-c2nc3ccccc3s2)c(N[C@@H]2CC[C@@H](O)[C@H]2O)n1` [Example 327], the EC90 is less than 0.5 µM. On the same count and under the same terms, in the case of `Cc1nc(NCc2cccs2)nc(N[C@@H]2C[C@H](CO)[C@H]3OC(C)(C)O[C@H]32)c1-c1nc2ccccc2s1` [Example 328] it was less than 0.5 µM. Still for that read-out and setting: in the case of `Cc1nc(NCc2cccs2)nc(N[C@@H]2C[C@H](CO)[C@@H](O)[C@H]2O)c1-c1nc2ccccc2s1` [Example 329] it was less than 0.5 µM; in that of `Cc1nc(NCc2ccsc2)nc(N[C@@H]2C[C@H](CO)[C@@H](O)[C@H]2O)c1-c1nc2ccccc2s1` [Example 331], less than 0.5 µM; in that of `CCCCCNc1nc(C)c(-c2nc3ccccc3s2)c(N[C@@H]2CC[C@H]3OC4(CCCCC4)O[C@@H]23)n1` [Example 332], more than 5 µM. On to `Cc1nc(NCc2cccs2)nc(N[C@@H]2CC[C@H]3OC4(CCCCC4)O[C@@H]23)c1-c1nc2ccccc2s1` [Example 334], for which the EC90 is more than 5 µM.

For `Cc1nc(NCc2cccs2)nc(N[C@@H]2C[C@H](C)[C@H]3OC4(CCCCC4)O[C@H]32)c1-c1nc2ccccc2s1` [Example 335], the EC90 is more than 5 µM. The same measure, in the same setting: then `Cc1nc(NCc2cccs2)nc(N[C@@H]2CC[C@@H](O)[C@H]2O)c1-c1nc2ccccc2s1` [Example 336], with less than 0.5 µM; and `Cc1nc(NCc2cccs2)nc(N[C@@H]2C[C@H](C)[C@@H](O)[C@H]2O)c1-c1nc2ccccc2s1` [Example 337], with less than 0.5 µM. On the same count and under the same terms, in the case of `COCc1cc2cc(-c3c(C)nc(NCc4nccs4)nc3N[C@@H]3C[C@H](CO)[C@H]4OC(C)(C)O[C@H]43)oc2cn1` [Example 339] it was less than 0.5 µM. For `COCc1cc2cc(-c3c(C)nc(NCc4nccs4)nc3N[C@@H]3C[C@H](CO)[C@@H](O)[C@H]3O)oc2cn1` [Example 340], the 90% effect concentration (EC90) was less than 0.5 µM.

On to `CCc1cc2cc(-c3c(C)nc(NCc4nccs4)nc3N[C@@H]3C[C@H](CO)[C@H]4OC(C)(C)O[C@H]43)oc2cn1` [Example 341], for which the concentration for an effect of 90% (EC90) is less than 0.5 µM. Still for that read-out and setting: in the case of `CCc1cc2cc(-c3c(C)nc(NCc4nccs4)nc3N[C@@H]3C[C@H](CO)[C@@H](O)[C@H]3O)oc2cn1` [Example 342] it was less than 0.5 µM; in that of `CCc1cc2cc(-c3c(C)nc(NCc4ccccn4)nc3N[C@@H]3C[C@H](CO)[C@H]4OC(C)(C)O[C@H]43)oc2cn1` [Example 343], more than 5 µM.

Turning to `CCc1cc2cc(-c3c(C)nc(NCc4ccccn4)nc3N[C@@H]3C[C@H](CO)[C@@H](O)[C@H]3O)oc2cn1` [Example 344], the EC90 was less than 0.5 µM. With `CCc1cc2cc(-c3c(C)nc(NCc4cc(OC)cc(OC)c4)nc3N[C@@H]3C[C@H](CO)[C@H]4OC(C)(C)O[C@H]43)oc2cn1` [Example 345], the 90% effect concentration (EC90) is less than 0.5 µM. Same read-out and setting: in the case of `CCc1cc2cc(-c3c(C)nc(NCc4cc(OC)cc(OC)c4)nc3N[C@@H]3C[C@H](CO)[C@@H](O)[C@H]3O)oc2cn1` [Example 346] it was less than 0.5 µM; in that of `COc1cc(CNc2nc(C)c(-c3cc4cc(OC)nc(C)c4o3)c(N[C@@H]3C[C@H](CO)[C@H]4OC(C)(C)O[C@H]43)n2)cc(OC)c1` [Example 347], less than 0.5 µM.

As to `COc1cc(CNc2nc(C)c(-c3cc4cc(OC)nc(C)c4o3)c(N[C@@H]3C[C@H](CO)[C@@H](O)[C@H]3O)n2)cc(OC)c1` [Example 348], the EC90 is less than 0.5 µM. Still for that read-out and setting: in the case of `COc1cc2cc(-c3c(C)nc(NCc4ccccn4)nc3N[C@@H]3C[C@H](CO)[C@H]4OC(C)(C)O[C@H]43)oc2c(C)n1` [Example 349] it was 0.5 to 5 µM; in that of `CN(C)c1nc(N[C@@H]2C[C@H](CO)[C@@H](O)[C@H]2O)c(-c2nc3ccccc3s2)c(C2CC2)n1` [Example 416], 0.5 to 5 µM. For `CCCNc1nc(Cl)c(-c2nc3ccccc3s2)c(N[C@@H]2C[C@H](CO)[C@@H](O)[C@H]2O)n1` [Example 419], the 90% effect concentration (EC90) was less than 0.5 µM. The same measure, in the same setting: then `Cc1cc2cc(-c3c(Cl)nc(N(C)C)nc3N[C@@H]3C[C@H](CO)[C@@H](O)[C@H]3O)oc2c(C)n1` [Example 420], with more than 5 µM. The same measure, in the same setting: in the case of `CCCNc1nc(C)c(-c2nc3ccccc3s2)c(N[C@@H]2C[C@H](CO)[C@@H](O)[C@H]2O)n1` [Example 422] it was less than 0.5 µM; in that of `OC[C@H]1C[C@@H](Nc2nc(NC3CCOCC3)nc(Cl)c2-c2nc3ccccc3s2)[C@H](O)[C@@H]1O` [Example 424], less than 0.5 µM. Still for that read-out and setting: then `Cc1nc(NC2CCOCC2)nc(N[C@@H]2C[C@H](CO)[C@@H](O)[C@H]2O)c1-c1nc2ccccc2s1` [Example 425], with less than 0.5 µM.

In the case of `CC(C)Nc1nc(Cl)c(-c2nc3ccccc3s2)c(N[C@@H]2C[C@H](CO)[C@@H](O)[C@H]2O)n1` [Example 426], the 90% effect concentration (EC90) is less than 0.5 µM. On the same count and under the same terms, in the case of `Cc1nc(NC(C)C)nc(N[C@@H]2C[C@H](CO)[C@@H](O)[C@H]2O)c1-c1nc2ccccc2s1` [Example 427] it was less than 0.5 µM; in that of `CC(C)(C)Nc1nc(Cl)c(-c2nc3ccccc3s2)c(N[C@@H]2C[C@H](CO)[C@@H](O)[C@H]2O)n1` [Example 428], less than 0.5 µM. On the same count and under the same terms, then `Cc1nc(NC(C)(C)C)nc(N[C@@H]2C[C@H](CO)[C@@H](O)[C@H]2O)c1-c1nc2ccccc2s1` [Example 429], with less than 0.5 µM; and `OC[C@H]1C[C@@H](Nc2nc(NCc3ccccc3)nc(Cl)c2-c2nc3ccccc3s2)[C@H](O)[C@@H]1O` [Example 430], with less than 0.5 µM. Still for that read-out and setting: in the case of `Cc1nc(NCc2ccccc2)nc(N[C@@H]2C[C@H](CO)[C@@H](O)[C@H]2O)c1-c1nc2ccccc2s1` [Example 431] it was less than 0.5 µM; in that of `CCCCNc1nc(Cl)c(-c2nc3ccccc3s2)c(N[C@@H]2C[C@H](CO)[C@@H](O)[C@H]2O)n1` [Example 432], less than 0.5 µM. With `CCCCCNc1nc(Cl)c(-c2nc3ccccc3s2)c(N[C@@H]2C[C@H](CO)[C@@H](O)[C@H]2O)n1` [Example 433], the EC90 was less than 0.5 µM. The same measure, in the same setting: in the case of `CCCCNc1nc(C)c(-c2nc3ccccc3s2)c(N[C@@H]2C[C@H](CO)[C@@H](O)[C@H]2O)n1` [Example 434] it was less than 0.5 µM.

For the compound `CCCCCNc1nc(C)c(-c2nc3ccccc3s2)c(N[C@@H]2C[C@H](CO)[C@@H](O)[C@H]2O)n1` [Example 435], the concentration for an effect of 90% (EC90) was less than 0.5 µM. On the same count and under the same terms, in the case of `CC(C)(C)CNc1nc(Cl)c(-c2nc3ccccc3s2)c(N[C@@H]2C[C@H](CO)[C@@H](O)[C@H]2O)n1` [Example 436] it was less than 0.5 µM; in that of `Cc1nc(NCC(C)(C)C)nc(N[C@@H]2C[C@H](CO)[C@@H](O)[C@H]2O)c1-c1nc2ccccc2s1` [Example 437], less than 0.5 µM. The same measure, in the same setting: in the case of `COC[C@H](C)Nc1nc(Cl)c(-c2nc3ccccc3s2)c(N[C@@H]2C[C@H](CO)[C@@H](O)[C@H]2O)n1` [Example 438] it was less than 0.5 µM; in that of `COC[C@H](C)Nc1nc(C)c(-c2nc3ccccc3s2)c(N[C@@H]2C[C@H](CO)[C@@H](O)[C@H]2O)n1` [Example 439], less than 0.5 µM.

The record behind these values is US8697694B2, “Substituted pyridine and pyrimidine derivatives and their use in treating viral infections” (priority 2008, dated 2014).
